Structures can show the parent of a compound that is named as a salt.
Columns and labels:
Format in all cases: in vivo
[1] = tested on: vertebral blood flow (VBF); test: Vertebral Blood Flow Increasing Activity (anesthetized dogs, intravenous); conditions: anesthetized mongrel dogs; for ED50: Canis lupus familiaris, iv, increase of VBF by 1 mg/kg papaverine hydrochloride regarded as 100%, 2-5 per group, test compounds as hydrochloride; for Cerebral vessel selectivity: ratio of percent increase of VBF to FBF (femoral blood flow), i.v.
Procedure: Next, the pharmacological activity of typical compounds of this invention is explained in detail below.
- 1. Vertebral Blood Flow Increasing Activity
Mongrel dogs of both sexes weighing from 12 to 20 kg were anesthetized with sodium pentobarbital.
Vertebral blood flow (VBF) and femoral blood flow (FBF) were measured by an electromagnetic flowmeter (MFV-2100 and MFV-3100, Nihon Kohden).
Test compound solutions were injected intravenously in a volume of 0.2 ml/kg.
Also, the ratio of percent increase of VBF to FBF elicited by test compounds were indicated as an index of cerebral vessel selectivity.
The test compounds were dissolved in a physiological saline solution.
Thereafter, the resulting solution was diluted with a physiological saline solution to the desired concentration. Each study was carried out using 2-5 dogs per group.

male ICR mice [2] = test: Acute Toxicity; conditions: intravenous, 25 mg/kg, three male ICR mice per group
Procedure: (§1) Next, the pharmacological activity of typical compounds of this invention is explained in detail below. The compounds of this invention shown in Table 1 where subjected to the following test in the form of a hydrochloride to obtain the results shown in each test item.
A test compounds were intravenously administered to a group of three male ICR mice, weighing 20 to 26 g. The mortality was determined.
The test compounds were dissolved in a physiological saline solution. However, the test compound Nos. 7, 23 and 24 were dissolved in an aqueous solution containing 10% of dimethylsulfoxide and 10% of Cremophor EL and flunarizine was dissolved in 0.1M aqueous lactic acid solution.

male ICR mice [3] = test: Protective Effect against Hypobaric Hypoxia; conditions: Mus musculus, po, 2 h, 80 mg/kg orally, one or two hours before 210 mmHg, vehicle group (5% dimethylsulfoxide, 5% Cremophor EL) = 100, read-out: Survival time (ratio)
Procedure: as §1
2. Protective Effect against Hypobaric Hypoxia
Each mouse was given 80 mg/kg of test compound orally one or two hours before the mice were placed under the hypobaric condition, and the survival time was measured.
The test compounds were dissolved in a physiological saline solution. However, the test compounds Nos. 7 and 23 were dissolved in an aqueous solution containing 5% of dimethylsulfoxide and 5% of Cremophor EL, and the control compound A (flunarizine) was dissolved in a 1.5% aqueous tartaric acid solution and then they were administered. Each study was carried out using 20 mice per group.
The protective effect against hypobaric hypoxide was determined as a ratio of the survival time of the group to which the test compounds was administered to that of the group to which an aqueous solution containing 5% of dimethylsulfoxide and 5% of Cremophor EL, the latter being indicated as 100.

| Structure (SMILES) | ED50 [1] | Cerebral vessel selectivity [1] | mortality (male ICR mice [2]) | response vs control in vivo at 80 mg/kg (male ICR mice [3]) |
| --- | --- | --- | --- | --- |
| C(=C\c1ccccc1)/CN1CCN(C2c3ccccc3CCc3cnccc32)CC1 (stereo not shown) [compound 2] | 0.34 mg/kg | 8.8 | – | – |
| O=[N+]([O-])c1ccc2c(c1)C(N1CCN(C/C=C/c3ccccc3)CC1)c1ccccc1SC2 (stereo not shown) [compound 25] | 0.28 mg/kg | 10.6 | – | – |
| O=[N+]([O-])c1cccc2c(/C=C/CN3CCN(C4c5ccccc5CCc5ncccc54)CC3)cccc12 (stereo not shown) [compound 21] | 0.33 mg/kg | 3.4 | no death case was found | – |
| C(=C\c1cccc2ccsc12)/CN1CCN(C2c3ccccc3CCc3ncccc32)CC1 (stereo not shown) [compound 20] | 0.36 mg/kg | 4.1 | no death case was found | 142% |
| COc1ccc(/C=C/CN2CCN(C3c4ccccc4CCc4ncccc43)CC2)cc1OC (stereo not shown) [compound 3] | 0.3 mg/kg | 5.0 | no death case was found | 136% |
| COc1ccc(/C=C/CN2CCN(C3c4ccccc4CCc4ncccc43)CC2)cc1Oc1cccnc1 (stereo not shown) [compound 16] | 0.15 mg/kg | 3.6 | – | – |
| COc1ccc(/C=C/CN2CCN(C3c4ccccc4CCc4ncccc43)CC2)cc1 (stereo not shown) [compound 5] | 0.3 mg/kg | 8.8 | – | – |
| C(=C\c1ccc2c(c1)OCO2)/CN1CCN(C2c3ccccc3CCc3ncccc32)CC1 (stereo not shown) [compound 9] | 0.45 mg/kg | 6.9 | – | 155% |
| C1=Cc2ncccc2C(N2CCN(C/C=C/c3ccccc3)CC2)c2ccccc21 (stereo not shown) [compound 22] | 0.15 mg/kg | 5.4 | – | – |
| C(=C\c1ccc2sccc2c1)/CN1CCN(C2c3ccccc3CCc3ncccc32)CC1 (stereo not shown) [compound 19] | 0.32 mg/kg | 4.1 | no death case was found | 138% |
| COc1cc(/C=C/CN2CCN(C3c4ccccc4CCc4ncccc43)CC2)ccc1Oc1cccnc1 (stereo not shown) [compound 15] | 0.18 mg/kg | 4.6 | – | – |
| Fc1ccc(C(c2ccc(F)cc2)N2CCN(C/C=C/c3ccccc3)CC2)cc1 [Control compd. A, Flunarizine dihydrochloride, reference compound] | 0.28 mg/kg | 2.1 | no death case was found | 61% |
| COc1ccccc1/C=C/CN1CCN(C2c3ccccc3CCc3ncccc32)CC1 (stereo not shown) [compound 4] | 0.22 mg/kg | 3.0 | – | – |
| Clc1ccc(/C=C/CN2CCN(C3c4ccccc4CCc4ncccc43)CC2)cc1Cl (stereo not shown) [compound 12] | 0.3 mg/kg | 5.6 | no death case was found | 129% |
| COc1ccc(/C=C/CN2CCN(C3c4ccccc4CCc4ncccc43)CC2)c(OC)c1OC (stereo not shown) [compound 8] | 0.14 mg/kg | 4.5 | no death case was found | – |
| Clc1cccc(/C=C/CN2CCN(C3c4ccccc4CCc4ncccc43)CC2)c1Cl (stereo not shown) [compound 18] | 0.3 mg/kg | 10.4 | no death case was found | – |
| COc1ccccc1/C=C/CN1CCN(C2c3ccccc3CCc3ccc([N+](=O)[O-])cc32)CC1 (stereo not shown) [compound 24] | 0.35 mg/kg | 14.3 | no death case was found | – |
| COc1ccc(/C=C/CN2CCN(C3c4ccccc4CCc4ncccc43)CC2)cc1Oc1ccccc1 (stereo not shown) [compound 7] | 0.11 mg/kg | 16.7 | no death case was found | 158% |
| Clc1cccc(/C=C/CN2CCN(C3c4ccccc4CCc4ncccc43)CC2)c1 (stereo not shown) [compound 11] | – | – | no death case was found | 146% |
| O=[N+]([O-])c1ccc2c(c1)C(N1CCN(C/C=C/c3ccccc3)CC1)c1ccccc1CC2 (stereo not shown) [compound 23] | 0.32 mg/kg | 5.0 | no death case was found | 205% |
| O=[N+]([O-])c1ccc(/C=C/CN2CCN(C3c4ccccc4CCc4ncccc43)CC2)cc1 (stereo not shown) [compound 6] | – | – | no death case was found | 135% |
| O=[N+]([O-])c1cccc(/C=C/CN2CCN(C3c4ccccc4CCc4ncccc43)CC2)c1 (stereo not shown) [compound 14] | 0.3 mg/kg | 3.8 | no death case was found | 139% |
| C(=C\c1ccccc1)/CN1CCN(C2c3ccccc3CCc3ncccc32)CC1 (stereo not shown) [compound 1] | – | – | no death case was found | 180% |
| Fc1ccc(/C=C/CN2CCN(C3c4ccccc4CCc4ncccc43)CC2)cc1F (stereo not shown) [compound 13] | – | – | no death case was found | 148% |
| COc1ccc(/C=C/CN2CCN(C3c4ccccc4CCc4ncccc43)CC2)cc1N (stereo not shown) [compound 17] | – | – | no death case was found | 143% |
| O=[N+]([O-])c1cccc(/C=C/CN2CCN(C3c4ccccc4CCc4ccc([N+](=O)[O-])cc43)CC2)c1 (stereo not shown) [compound 26] | 0.28 mg/kg | 4.4 | – | – |
| COc1ccc(/C=C/CN2CCN(C3c4ccccc4CCc4ncccc43)CC2)cc1[N+](=O)[O-] (stereo not shown) [compound 10] | 0.17 mg/kg | 9.1 | no death case was found | – |

Reference: US4948796A, “Piperazine derivative or its salt, process for producing the same and pharmaceutical composition comprising the same as active ingredient” (Toyama Chemical Co., Ltd., priority 1988, dated 1990)
